According to patent publication US10155021B2, “Antimicrobial 4-oxoquinolizines” (Emergent Product Development Gaithersburg Inc., priority 2011, dated 2018):
Converted amounts (≈) assume the structure as drawn. Where two headings read alike, the source gives them in different places.

How the values were obtained:
E. coli IMP = experiment: microbe, parasite or virus in culture; conditions: Escherichia coli, read-out: MIC E. coli IMP
B. anthracis = experiment: microbe, parasite or virus in culture; assay type: cell-based; conditions: Bacillus anthracis, read-out: MIC B. anthracis
A. baumannii A472 [1] = experiment: MIC determination for Acinetobacter strains (Example 3); assay type: cell-based; conditions: LEV R, CIP R, MRP I, IMP I, AMK R, TET R
E. coli CTX-M-15 = experiment: MIC, panel of quinolone-resistant strains (CLSI); assay type: cell-based; conditions: Escherichia coli, CTXM15; CIP R, ESBL
A. baumannii A473 [2] = experiment: MIC without and with sub-inhibitory polymyxin B (Example 4); assay type: cell-based, Acinetobacter baumannii; conditions: Acinetobacter baumannii, A473, A. baumannii A473, without polymyxin B, read-out: MIC without PB
[3] = tested on: resistant strains of A. baumannii and one strain of Acinetobacter sp.; experiment: MIC without and with sub-inhibitory polymyxin B, whole panel / MIC ranges (Example 4; also strains not listed separately); assay type: cell-based; conditions: Acinetobacter baumannii
S. pneumoniae 1027 = experiment: MIC, panel of quinolone-resistant strains (CLSI); assay type: cell-based; conditions: Streptococcus pneumoniae, LEV R
A. baumannii A329 = experiment: MIC without and with sub-inhibitory polymyxin B (Example 4); assay type: cell-based, Acinetobacter baumannii; conditions: Acinetobacter baumannii, A329, A. baumannii A329; without polymyxin B; 2nd experiment; visual reading; read-out: MIC without PB
A. baumannii A390 [4] = experiment: MIC determination for Acinetobacter strains (Example 3); assay type: cell-based; conditions: LEV R, CIP R, MRP R, IPM I, AMK R, TET I
E. coli 25922 = experiment: MIC, standard panel of Gram-positive and Gram-negative bacteria (CLSI); assay type: cell-based, Escherichia coli; conditions: Escherichia coli, 25922; CAMHB; read-out: MIC E. coli 25922
Klebsiella ssp KPC-3 = experiment: MIC, panel of quinolone-resistant strains (CLSI); assay type: cell-based, Klebsiella spp; conditions: KPC3, CIP R, ESBL
E. faecium 19434 = experiment: MIC, standard panel of Gram-positive and Gram-negative bacteria (CLSI); assay type: cell-based, Enterococcus faecium; conditions: Enterococcus faecium, 19434; CAMHB; read-out: MIC E. faecium 19434
A. baumannii A473 [5] = experiment: MIC determination for Acinetobacter strains (Example 3); assay type: cell-based; conditions: LEV R, CIP R, MRP R, IMP R, AMK R, TET R
A. baumannii A401 = experiment: MIC without and with sub-inhibitory polymyxin B (Example 4); assay type: cell-based, Acinetobacter baumannii; conditions: Acinetobacter baumannii, A401, A baumannii A 401; without polymyxin B; 2nd experiment; visual reading; read-out: MIC without PB
A. baumannii ATCC 19606 = experiment: Preliminary MBC without and with sub-inhibitory polymyxin B (Example 4); assay type: cell-based, Acinetobacter baumannii; conditions: Acinetobacter baumannii, ATCC19606, read-out: MBC without PB
B. pseudomallei = experiment: microbe, parasite or virus in culture; assay type: cell-based; conditions: Burkholderia pseudomallei, read-out: MIC B. pseudomallei
E. coli 2906 = experiment: MIC, panel of quinolone-resistant strains (CLSI); assay type: cell-based; conditions: Escherichia coli, CIP R
P. aeruginosa 1388-3-02 = experiment: MIC, panel of quinolone-resistant strains (CLSI); assay type: cell-based; conditions: Pseudomonas aeruginosa, 1388302; CIP R, POL R
F. tularensis = experiment: microbe, parasite or virus in culture; assay type: cell-based; conditions: Francisella tularensis, read-out: MIC F. tularensis
[6] = tested on: Acinetobacter sp. (H064200250); experiment: Preliminary MBC without and with sub-inhibitory polymyxin B (Example 4); assay type: cell-based; conditions: Acinetobacter, without polymyxin B, preliminary MBC, read-out: MBC without PB
Description: The plates were incubated for 18-20 hours at 37° C. The MBC was read as the lowest concentration at which colony growth was ca. 90% less than the positive control (i.e. usually where single colonies or no colonies were observed).

A. baumannii J2 [7] = experiment: MIC without and with sub-inhibitory polymyxin B (Example 4); assay type: cell-based, Acinetobacter baumannii; conditions: Acinetobacter baumannii, J2, A. baumannii J2; without polymyxin B; 1st experiment; read-out: MIC without PB
A. Baumanii OXA-51 = experiment: MIC, panel of quinolone-resistant strains (CLSI); assay type: cell-based; conditions: Acinetobacter baumannii; CIP R, ESBL
[8] = tested on: Acinetobacter sp. (H064200250); experiment: MIC without and with sub-inhibitory polymyxin B (Example 4); assay type: cell-based; conditions: Acinetobacter, without polymyxin B, read-out: MIC without PB
Pseudomonas ssp PER-1 = experiment: MIC, panel of quinolone-resistant strains (CLSI); assay type: cell-based, Pseudomonas spp; conditions: PER1, CIP R, ESBL
A. baumannii A472 [9] = experiment: MIC without and with sub-inhibitory polymyxin B (Example 4); assay type: cell-based, Acinetobacter baumannii; conditions: Acinetobacter baumannii, A472, A. baumannii A472; without polymyxin B; 1st experiment; read-out: MIC without PB
P. aeruginosa 143-3-03 = experiment: MIC, panel of quinolone-resistant strains (CLSI); assay type: cell-based; conditions: Pseudomonas aeruginosa, 143303; CIP I, POL R
S. aureus 101 = experiment: MIC, standard panel of Gram-positive and Gram-negative bacteria (CLSI); assay type: cell-based, Staphylococcus aureus; conditions: Staphylococcus aureus, 101; CAMHB; read-out: MIC S. aureus 101
A. baumannii J2 [10] = experiment: MIC determination for Acinetobacter strains (Example 3); assay type: cell-based; conditions: LEV R, CIP R
A. baumannii A390 [11] = experiment: MIC without and with sub-inhibitory polymyxin B (Example 4); assay type: cell-based, Acinetobacter baumannii; conditions: Acinetobacter baumannii, A390, A. baumannii A390, without polymyxin B, read-out: MIC without PB
[12] = tested on: Acinetobacter spp. H064200250; experiment: MIC determination for Acinetobacter strains (Example 3); assay type: cell-based, Acinetobacter sp.; conditions: LEV R, CIP R, MRP R, IMP I
B. abortus = experiment: microbe, parasite or virus in culture; assay type: cell-based; conditions: Brucella abortus, read-out: MIC B. abortus
B. thailandensis = experiment: microbe, parasite or virus in culture; assay type: cell-based, Burkholderia thailandensis; conditions: Burkholderia thailandensis, read-out: MIC90 B. thailandensis
A. baumannii A489 = experiment: MIC without and with sub-inhibitory polymyxin B (Example 4); assay type: cell-based, Acinetobacter baumannii; conditions: Acinetobacter baumannii, A489, A. baumannii A489; without polymyxin B; 2nd experiment; visual reading; read-out: MIC without PB
[13] = tested on: K. pneumoniae BAA-2146 (NDM-1, FQ-R); experiment: MIC on K. pneumoniae (Example 5); assay type: cell-based; conditions: Klebsiella pneumoniae, BAA2146, read-out: MIC K. pneumoniae BAA-2146 (NDM-1, FQ-R)
Description: MIC Values for all compounds were measured against a selection of bacterial strains. The MICs of 4-oxoquinolizines against a selection of Gram-negative and Gram-positive bacterial strains are shown in Table 13 in comparison with known antibiotics.

[14] = Acinetobacter spp. H064200250, 1st experiment

Compound: Cc1c(-c2ccc(CN)cc2)ccn2c(=O)c(C(=O)O)cc(C3CC3)c12 [Compound 5, 8-(4-aminomethyl-phenyl)-1-cyclopropyl-9-methyl-4-oxo-quinolizine-3-carboxylic acid]
- MIC (E. coli IMP): < 0.008 µg/mL
- MIC (B. anthracis): 0.125 µg/mL (≈ 0.359 µM)
- MIC (A. baumannii A472 [1]): 8 µg/mL (≈ 23 µM)
- MIC (E. coli CTX-M-15): 16 µg/mL (≈ 45.9 µM)
- MIC (A. baumannii A473 [2]; 1st experiment): 8 µg/mL (≈ 23 µM)
- MIC (A. baumannii A473 [2]; 2nd experiment, visual reading): 8 µg/mL (≈ 23 µM)
- MIC ([3]; A. baumannii A14, without polymyxin B, 1st experiment, read-out: MIC without PB): 32 µg/mL (≈ 91.8 µM)
- MIC ([3]; NCTC13301, A. baumannii NCTC 13301, without polymyxin B, 2nd experiment, visual reading, read-out: MIC without PB): 8 µg/mL (≈ 23 µM)
- MIC ([3]; read-out: MIC range without PB 01-10-2008 n = 8, without polymyxin B, 1st experiment, 8 strains): 2 to 32 µg/mL (≈ 5.74 to 91.8 µM)
- MIC ([3]; without polymyxin B, 2nd experiment, 11 strains, read-out: MIC range without PB 14-10-2008 n = 11): 4 to 16 µg/mL (≈ 11.5 to 45.9 µM)
- MIC (S. pneumoniae 1027): 2 µg/mL (≈ 5.74 µM)
- MIC (A. baumannii A329): 8 µg/mL (≈ 23 µM)
- MIC (A. baumannii A390 [4]): 8 µg/mL (≈ 23 µM)
- MIC (E. coli 25922): < 0.03 µg/mL
- MIC (Klebsiella ssp KPC-3): 8 µg/mL (≈ 23 µM)
- MIC (E. faecium 19434): 2 µg/mL (≈ 5.74 µM)
- MIC (A. baumannii A473 [5]): 8 µg/mL (≈ 23 µM)
- MIC (A. baumannii A401): 8 µg/mL (≈ 23 µM)
- MBC (A. baumannii ATCC 19606): 0.125 µg/mL (≈ 0.359 µM)
- MIC (B. pseudomallei): 2 µg/mL (≈ 5.74 µM)
- MIC (E. coli 2906): 16 µg/mL (≈ 45.9 µM)
- MIC (P. aeruginosa 1388-3-02): 16 µg/mL (≈ 45.9 µM)
- MIC (F. tularensis): 0.125 µg/mL (≈ 0.359 µM)
- MBC ([6]; Acinetobacter spp. H064200250 (OXA51), 2nd experiment): 16 µg/mL (≈ 45.9 µM)
- MBC [6, 14]: 8 µg/mL (≈ 23 µM)
- MIC (A. baumannii J2 [7]): 8 µg/mL (≈ 23 µM)
- MIC (A. Baumanii OXA-51): 8 µg/mL (≈ 23 µM)
- MIC ([8]; Acinetobacter spp. H064200250 (OXA51), 2nd experiment, visual reading): 16 µg/mL (≈ 45.9 µM)
- MIC [8, 14]: 16 µg/mL (≈ 45.9 µM)
- MIC (Pseudomonas ssp PER-1): 8 µg/mL (≈ 23 µM)
- MIC (A. baumannii A472 [9]): 8 µg/mL (≈ 23 µM)
- MIC (P. aeruginosa 143-3-03): 4 µg/mL (≈ 11.5 µM)
- MIC (S. aureus 101): 4 µg/mL (≈ 11.5 µM)
- MIC (A. baumannii J2 [10]): 8 µg/mL (≈ 23 µM)
- MIC (A. baumannii A390 [11]; 1st experiment): 8 µg/mL (≈ 23 µM)
- MIC (A. baumannii A390 [11]; 2nd experiment, visual reading): 8 µg/mL (≈ 23 µM)
- MIC [12]: 16 µg/mL (≈ 45.9 µM)
- MIC (B. abortus): 1 µg/mL (≈ 2.87 µM)
- MIC90 (B. thailandensis): 0.39 µg/mL (≈ 1.12 µM)
- MIC (A. baumannii A489): 8 µg/mL (≈ 23 µM)

Compound: Cc1c(-c2ccc3[nH]ncc3c2)ccn2c(=O)c(C(=O)[O-])cc(C3CC3)c12.[K+] [Compound 35 K salt, potassium 8-(1H-indazol-5-yl)-1-cyclopropyl-9-methyl-4-oxo-4H-quinolizine-3-carboxylate]
- MIC [13]: > 8 µg/mL

Compound: Cc1c(-c2ccc(N)nc2)ccn2c(=O)c(C(=O)[O-])cc(C3CC3)c12.[K+] [Compound 33 K salt, potassium 8-(6-amino-pyridin-3-yl)-1-cyclopropyl-9-methyl-4-oxo-4H-quinolizine-3-carboxylate]
- MIC [13]: > 8 µg/mL
